In patent US8461328B2, “Tricyclic heterocyclic compounds, compositions and methods of use thereof” (Genentech, Inc., priority 2010, dated 2013) one finds Ki data, which are given here for 24 compounds.

One may read the Ki as the equilibrium dissociation constant of an inhibitor or competing ligand from its target.

Holding throughout (type): biochemical
One assay deals with T1, JAK1 (Homo sapiens, UniProt P23458).
T1 construct: made in house; host or cells: SF9 insect cells (baculovirus)
The assay can be described thus: JAK1 inhibition (Table 4). As to conditions: read-out: JAK1 Ki.

The target in another assay is T2, JAK2 (Homo sapiens, UniProt O60674).
T2 construct: made in house; host or cells: SF9 insect cells (baculovirus)
The assay can be described thus: JAK2 inhibition (Table 4). As to conditions: read-out: JAK2 Ki.

Another assay deals with T3, JAK3 (Homo sapiens, UniProt P52333).
T3 construct: made in house; host or cells: SF9 insect cells (baculovirus)
Nature of the assay: JAK3 inhibition (Table 4). As to conditions: read-out: JAK3 Ki.

Another assay has as its target T4, TYK2 (Homo sapiens, UniProt P29597).
T4 construct: made in house; host or cells: SF9 insect cells (baculovirus)
T4 sequence (P29597 873-1187): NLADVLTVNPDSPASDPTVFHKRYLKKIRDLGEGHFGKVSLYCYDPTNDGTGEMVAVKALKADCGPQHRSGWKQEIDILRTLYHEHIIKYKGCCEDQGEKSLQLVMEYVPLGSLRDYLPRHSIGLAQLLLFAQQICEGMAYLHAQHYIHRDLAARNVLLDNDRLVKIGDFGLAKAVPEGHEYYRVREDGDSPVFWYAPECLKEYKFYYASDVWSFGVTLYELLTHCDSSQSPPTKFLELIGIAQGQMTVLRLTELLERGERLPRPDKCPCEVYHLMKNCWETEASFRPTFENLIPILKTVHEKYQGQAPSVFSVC
Nature of the assay: TYK2 inhibition (Table 4).

T3 sequence (P52333 783-1124): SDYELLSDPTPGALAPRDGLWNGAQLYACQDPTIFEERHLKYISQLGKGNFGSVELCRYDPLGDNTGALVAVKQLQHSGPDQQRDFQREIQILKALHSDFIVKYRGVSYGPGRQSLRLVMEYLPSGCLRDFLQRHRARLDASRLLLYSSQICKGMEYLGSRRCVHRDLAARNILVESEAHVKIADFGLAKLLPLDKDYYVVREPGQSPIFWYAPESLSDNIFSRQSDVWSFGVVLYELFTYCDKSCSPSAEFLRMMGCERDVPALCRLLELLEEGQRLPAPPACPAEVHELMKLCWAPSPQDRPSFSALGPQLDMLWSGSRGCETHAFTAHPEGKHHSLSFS
T2 sequence (O60674 812-1132): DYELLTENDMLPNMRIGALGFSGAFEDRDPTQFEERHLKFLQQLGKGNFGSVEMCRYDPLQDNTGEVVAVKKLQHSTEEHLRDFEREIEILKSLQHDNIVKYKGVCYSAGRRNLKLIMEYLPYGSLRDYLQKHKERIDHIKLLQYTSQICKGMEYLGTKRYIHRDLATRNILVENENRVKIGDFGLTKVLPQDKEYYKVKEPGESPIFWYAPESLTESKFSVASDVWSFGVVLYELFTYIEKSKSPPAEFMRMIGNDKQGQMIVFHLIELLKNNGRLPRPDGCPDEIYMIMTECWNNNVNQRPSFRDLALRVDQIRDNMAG
T1 sequence (P23458 852-1154): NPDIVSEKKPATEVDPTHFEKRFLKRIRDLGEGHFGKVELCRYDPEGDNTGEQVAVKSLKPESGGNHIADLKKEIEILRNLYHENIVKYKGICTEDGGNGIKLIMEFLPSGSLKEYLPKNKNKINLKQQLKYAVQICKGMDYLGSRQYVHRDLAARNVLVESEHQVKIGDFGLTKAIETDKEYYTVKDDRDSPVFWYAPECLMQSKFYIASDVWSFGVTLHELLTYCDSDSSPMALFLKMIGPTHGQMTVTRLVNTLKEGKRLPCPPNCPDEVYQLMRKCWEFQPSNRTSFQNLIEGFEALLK

As to `C[C@@H](O)c1nc2cnc3[nH]ccc3c2n1[C@@H]1CCCO1` [Example 659, (R)-1-[(S)-1-(Tetrahydro-furan-2-yl)-1,6-dihydro-1,2,3,5,6-tetraaza-as-indacen-2-yl]-ethanol], the Ki on JAK1 was 30.8 nM; on JAK2, 395 nM; at JAK3 it was 172 nM; on TYK2, 308 nM.
In the same order, the values of `C[C@@H](O)c1nc2cnc3[nH]ccc3c2n1[C@H]1CCCO1` [Example 660, (R)-1-[(R)-1-(Tetrahydro-furan-2-yl)-1,6-dihydro-1,2,3,5,6-tetraaza-as-indacen-2-yl]-ethanol] are 327 nM, 1220 nM, 1050 nM and 645 nM.
For `C[C@@H](O)c1nc2cnc3[nH]ccc3c2n1[C@@H]1CCCN(C(=O)CC#N)C1` [Example 661, 3-{(R)-3-[2-((R)-1-Hydroxy-ethyl)-6H-1,2,3,5,6-tetraaza-as-indacen-1-yl]-piperidin-1-yl}-3-oxo-propionitrile] the same measures were 3.98 nM, 66.3 nM, 55.4 nM and 46.2 nM.
For `C[C@H](O)c1nc2cnc3[nH]ccc3c2n1[C@@H]1CCCN(C(=O)CC#N)C1` [Example 662, 3-{(R)-3-[2-((S)-1-Hydroxy-ethyl)-6H-1,2,3,5,6-tetraaza-as-indacen-1-yl]-piperidin-1-yl}-3-oxo-propionitrile] the same measures were 26.2 nM, 307 nM, 855 nM and 877 nM.
As to `CC(O)c1nc2cnc3[nH]ccc3c2n1C1CCCN(CCF)C1` [Example 664, (R)-1-{1-[(R)-1-(2-Fluoro-ethyl)-piperidin-3-yl]-1,6-dihydro-1,2,3,5,6-tetraaza-as-indacen-2-yl}-ethanol], the Ki on JAK1 was 63.8 nM; at JAK2 it was 99 nM; at JAK3 it was 112 nM; on TYK2 it was 58.5 nM.
In the same order, the values of `c1cc2c(ncc3nc([C@H]4CCCN4)n([C@H]4CCCOC4)c32)[nH]1` [Example 667, 2-(R)-Pyrrolidin-2-yl-1-(S)-tetrahydro-pyran-3-yl-1,6-dihydro-1,2,3,5,6-tetraaza-as-indacene] are 114 nM, 467 nM, 895 nM and 519 nM.
For `COC(=O)N1CCCC(n2c([C@@H](C)O)nc3cnc4[nH]ccc4c32)C1` (stereo partly drawn) [Example 670, (R)-3-[2-((R)-1-Hydroxy-ethyl)-6H-1,2,3,5,6-tetraaza-as-indacen-1-yl]-piperidine-1-carboxylic acid methyl ester], the Ki at JAK1 amounted to 397 nM; at JAK2, 1750 nM; on JAK3 it was 2170 nM; at TYK2 it was 1520 nM.
In the case of `OCc1nc2cnc3[nH]ccc3c2n1C1CCCCC1` [Example 675, (1-Cyclohexyl-1,6-dihydro-1,2,3,5,6-tetraaza-as-indacen-2-yl)-methanol], the Ki at JAK1 was determined as 1.21 nM; at JAK2, 6.96 nM; at JAK3, 11.4 nM; at TYK2 it was 1.78 nM.
Take `N#CCC(=O)N1CCCC(n2c(CC3CC3)nc3cnc4[nH]ccc4c32)C1` (stereo not drawn) [Example 676, 3-[3-(2-Cyclopropylmethyl-6H-1,2,3,5,6-tetraaza-as-indacen-1-yl)-piperidin-1-yl]-3-oxo-propionitrile]: the Ki at JAK1 was found to be 1.36 nM; on JAK2 it was 7.87 nM; on JAK3, 40.2 nM; on TYK2, 22.1 nM.
For `CC(=O)NCCc1nc2cnc3[nH]ccc3c2n1C1CCCCC1` [Example 677, N-[2-(1-Cyclohexyl-1,6-dihydro-1,2,3,5,6-tetraaza-as-indacen-2-yl)-ethyl]-acetamide] the same measures were 2.47 nM, 29.5 nM, 32.9 nM and 27.5 nM.
For `CCOC(=O)NCCc1nc2cnc3[nH]ccc3c2n1C1CCN(CC)CC1(F)F` (stereo not drawn) [Example 678, {2-[1-(1-Ethyl-3,3-difluoro-piperidin-4-yl)-1,6-dihydro-1,2,3,5,6-tetraaza-as-indacen-2-yl]-ethyl}-carbamic acid ethyl ester] the same measures were 3.95 nM, 31.8 nM, 23.6 nM and 276 nM.
For the compound `CCN1CC[C@@H](n2c(CCNS(=O)(=O)CC)nc3cnc4[nH]ccc4c32)[C@@H](F)C1` [Example 681, Ethanesulfonic acid {2-[1-((3S,4R)-1-ethyl-3-fluoro-piperidin-4-yl)-1,6-dihydro-1,2,3,5,6-tetraaza-as-indacen-2-yl]-ethyl}-amide], the Ki was found to be 4.21 nM on JAK1, 32.6 nM on JAK2, 133 nM at JAK3 and 290 nM on TYK2.
In the same order, the values of `C[C@@H](O)c1nc2cnc3[nH]ccc3c2n1C1CCN(Cc2ncccc2F)CC1` [Example 682, (R)-1-{1-[1-(3-Fluoro-pyridin-2-ylmethyl)-piperidin-4-yl]-1,6-dihydro-1,2,3,5,6-tetraaza-as-indacen-2-yl}-ethanol] are 8.63 nM, 103 nM, 31 nM and 387 nM.
In the same order, the values of `CC(C)(C)COCc1nc2cnc3[nH]ccc3c2n1C1CCN(CCC#N)CC1` [Example 683, 3-{4-[2-(2,2-Dimethyl-propoxymethyl)-6H-1,2,3,5,6-tetraaza-as-indacen-1-yl]-piperidin-1-yl}-propionitrile] are 162 nM, 259 nM, 308 nM and 1750 nM.
For `CO[C@H](C)c1nc2cnc3[nH]ccc3c2n1C1CCCCC1` [Example 685, 1-Cyclohexyl-2-((R)-1-methoxy-ethyl)-1,6-dihydro-1,2,3,5,6-tetraaza-as-indacene], the Ki worked out at 37.1 nM at JAK1, 115 nM at JAK2, 34.4 nM at JAK3 and 125 nM at TYK2.
For the compound `C[C@@H](O)c1nc2cnc3[nH]ccc3c2n1[C@@H]1CCN(S(C)(=O)=O)C1` [Example 686, (R)-1-[1-((R)-1-Methanesulfonyl-pyrrolidin-3-yl)-1,6-dihydro-1,2,3,5,6-tetraaza-as-indacen-2-yl]-ethanol], the Ki at JAK1 is 47.4 nM; at JAK2, 27 nM; on JAK3, 15.3 nM; at TYK2 it was 4.17 nM.
In the same order, the values of `C[C@@H](O)c1nc2cnc3[nH]ccc3c2n1[C@@H]1CCNC1` [Example 687, (R)-1-((R)-1-Pyrrolidin-3-yl-1,6-dihydro-1,2,3,5,6-tetraaza-as-indacen-2-yl)-ethanol] are 167 nM, 1480 nM, 858 nM and 834 nM.
`C[C@@H](O)c1nc2cnc3[nH]ccc3c2n1[C@@H]1CCC[C@@H](O)C1` [Example 689, (1R,3R)-3-[2-((R)-1-Hydroxy-ethyl)-6H-1,2,3,5,6-tetraaza-as-indacen-1-yl]-cyclohexanol]: the Ki on JAK1 is 2.73 nM; on JAK2, 52.4 nM; at JAK3, 57 nM; at TYK2, 5.59 nM.
For `CC(C)(C)[S+]([O-])NCc1nc2cnc3[nH]ccc3c2n1C1CCCCC1` (stereo not drawn) [Example 690, 2-Methyl-propane-2-sulfinic acid (1-cyclohyl-1,6-dihydro-1,2,3,5,6-tetraaza-as-indacen-2-ylmethyl)-amide] the same measures were 62.2 nM, 199 nM, 229 nM and 270 nM.
For `CC(CF)N1CCC(n2c([C@@H](C)O)nc3cnc4[nH]ccc4c32)CC1` (stereo partly drawn) [Example 691, 1-{1-[1-(2-Fluoro-1-methyl-ethyl)-piperidin-4-yl]-1,6-dihydro-1,2,3,5,6-tetraaza-as-indacen-2-yl}-ethanol] the same measures were 61.4 nM, 320 nM, 206 nM and 750 nM.
In the same order, the values of `CS(=O)(=O)NCCc1nc2cnc3[nH]ccc3c2n1C1CC2CCC1C2` (stereo not drawn) [Example 694, N-[2-(1-Bicyclo[2.2.1]hept-2-yl-1,6-dihydro-1,2,3,5,6-tetraaza-as-indacen-2-yl)-ethyl]-methanesulfonamide] are 0.55 nM, 5.63 nM, 20.3 nM and 7.58 nM.
Take `N#CCCN1CCC(n2c(CNCC(F)(F)F)nc3cnc4[nH]ccc4c32)CC1` [Example 695, 3-(4-{2-[(2,2,2-Trifluoro-ethylamino)-methyl]-6H-1,2,3,5,6-tetraaza-as-indacen-1-yl}-piperidin-1-yl)-propionitrile]: the Ki amounted to 28.4 nM at JAK1, 77.7 nM on JAK2, 63.1 nM at JAK3 and 483 nM on TYK2.
In the same order, the values of `O=S1(=O)CCCN1Cc1nc2cnc3[nH]ccc3c2n1C1CCCCC1` [Example 696, 1-Cyclohyl-2-(1,1-dioxo-1,1,6-isothiazolidin-2-ylmethyl)-1,6-dihydro-1,2,3,5,6-tetraaza-as-indacene] are 13.6 nM, 66.8 nM, 57.5 nM and 49.6 nM.
For `CC(F)CN1CCC(n2c([C@@H](C)O)nc3cnc4[nH]ccc4c32)CC1` (stereo partly drawn) [Example 697, (R)-1-{1-[1-(2-Fluoro-propyl)-piperidin-4-yl]-1,6-dihydro-1,2,3,5,6-tetraaza-as-indacen-2-yl}-ethanol] the same measures were 3.1 nM, 64.8 nM, 36.1 nM and 32.5 nM.
